Results published in patent publication US11666642B2, “PDE5 compositions and methods for immunotherapy” (Obsidian Therapeutics, Inc., priority 2017, dated 2023).

Tests used:
HEK 293 cells = test: CAR surface expression by Protein L staining, dose and time dependence; type: cell-based; details: OT-CD19-053 in HEK 293 cells, 24 hours of ligand
Experimental: The dose dependent regulation of OT-CD19-052 and OT-CD19-053 was measured in HEK 293 cells transfected with 2 ug DNA and stably selected using 2 ug/ml puromycin.
Cells were also treated with ligand for varying durations of time with ligand concentrations shown in Table 45C and Protein L expression was measured using FACS.

NIH 3T3 cells = test: Western blot analysis using a GFP antibody, hPDE5 C terminal mutants; details: hPDE5 mutant construct, 24 hours and 48 hours, vs untreated cells
Text: All comparisons were made against cells that were not treated with either ligand.

HEK293T cells = test: Effect of linker on DD regulation of IL15-IL15Ra, FACS using the HA antibody; type: cell-based; details: for Stabilization ratio: 1 μM Vardenafil vs DMSO control; for % HA positive cells, Vardenafil: 1 μM Vardenafil, 24 hours; for % HA positive cells, Control: DMSO control
Experimental: The effect of the type of linker used and the length of the linker on the regulation of the expression of the payload was tested. IL15-IL15Ra fusion constructs were linked to the hPDE5 (R732L) DD using GSGSGS (SEQ ID NO. 8330) as the linker (as in OT-IL15-111), or […] (SEQ ID NO. 8331) as the linker (as in OT-IL15-112) or using […] (SEQ ID NO. 8332) as the linker (as in OT-IL15-113). The IL15 portion of the construct was tagged with a Flag tag while the IL15Ra portion was tagged with a HA tag. These tags allow both the components of the construct to be tracked individually in experiments. […] The properties of the DDs regulated IL15-IL15Ra payloads were analyzed in the presence and absence of ligands via FACS using the HA antibody as previously described.

Molecule | Stabilization ratio (HEK293T cells) | % HA positive cells, Vardenafil (HEK293T cells) [%] | % HA positive cells, Control (HEK293T cells) [%] | other results
CCCc1nn(C)c2c(=O)[nH]c(-c3cc(S(=O)(=O)N4CCN(C)CC4)ccc3OCC)nc12 [Sildenafil] | – | – | – | EC50 (HEK 293 cells): 1500 nM; GFP protein levels by western blot (NIH 3T3 cells; 0.1 μM ligand): modest stabilization of GFP protein levels; GFP protein levels by western blot (NIH 3T3 cells; 1 μM ligand): stabilization of GFP increased
CCCc1nc(C)c2c(=O)[nH]c(-c3cc(S(=O)(=O)N4CCN(CC)CC4)ccc3OCC)nn12 [Vardenafil] | – | – | – | EC50 (HEK 293 cells; Homo sapiens, HEK293): 25 nM
OT-IL15-111: IL15-IL15Ra fusion linked to hPDE5 (R732L) DD using GSGSGS linker | 1.69 | 63.2 | 37.5 | –
OT-IL15-112: IL15-IL15Ra fusion linked to hPDE5 (R732L) DD using GSGSGSGS linker | – | 74.6 | 41.6 | –
OT-IL15-113: IL15-IL15Ra fusion linked to hPDE5 (R732L) DD using GSGSGGGSGS linker | 1.65 | 69.1 | 42 | –
